Experimental data as given in US10294229B2, “Heteroaryl substituted aminopyridine compounds” (BRISTOL-MYERS SQUIBB COMPANY, priority 2015, dated 2019).

Columns and labels:
IRAK4 = IRAK4 (Homo sapiens (Human), UniProt Q9NWZ3); assay: IRAK4 Inhibition Assay; type: biochemical; details: ATP 500 μM; IRAK4 0.6 nM
In short: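 Mobility-shift readout: phosphorylated and unphosphorylated fluorescent peptide (1.5 μM) resolved by electrophoresis after a 60 min room-temperature reaction stopped with EDTA. Reaction holds 0.6 nM IRAK4, 500 μM ATP and 1.6% DMSO in HEPES pH 7.2/MgCl2/Brij 35/DTT buffer; percent inhibition set against vehicle and no-enzyme controls.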

[1] = test system: Human whole blood stimulated with a TLR2 agonist (lipoteichoic acid), IL-6 levels; assay: IRAK4 Whole Blood Assay; type: cell-based; details: lipoteichoic acid 10 μg/mL
Protocol: Human whole blood containing the anti-coagulant ACD-A was plated in 384-well plate (25 μL/well) and incubated with compounds for 60 minutes at 37° C. in a 5% CO2 incubator. The blood was stimulated with a TLR2 agonist, 10 μg/mL final concentration of lipoteichoic acid (Invivogen, San Diego, Calif.) in 25 μL RPMI (Gibco) for 5 hours in a 5% CO2 incubator. At the end of the incubation, plates were centrifuged at 2300 rpm for 5 minutes. Supernatants were harvested and analyzed for IL-6 levels by Flow Cytometry beads assay (BD Biosciences, San Jose, Calif.).

Chain of IRAK4 (Q9NWZ3 whole entry, species assumed): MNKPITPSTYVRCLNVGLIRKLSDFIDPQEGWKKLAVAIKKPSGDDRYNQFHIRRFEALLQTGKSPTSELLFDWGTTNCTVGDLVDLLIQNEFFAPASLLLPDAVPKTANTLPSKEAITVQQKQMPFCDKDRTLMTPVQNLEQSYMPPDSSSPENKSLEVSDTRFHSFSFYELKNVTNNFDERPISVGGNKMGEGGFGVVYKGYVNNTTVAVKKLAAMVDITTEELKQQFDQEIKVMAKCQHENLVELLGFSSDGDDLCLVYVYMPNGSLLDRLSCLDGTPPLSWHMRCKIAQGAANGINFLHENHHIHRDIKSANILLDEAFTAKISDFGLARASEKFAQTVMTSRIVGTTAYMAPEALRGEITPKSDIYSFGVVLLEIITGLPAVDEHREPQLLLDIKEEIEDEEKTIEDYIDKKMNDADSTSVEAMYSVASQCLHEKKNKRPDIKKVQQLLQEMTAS

Structure (SMILES)	IC50 (IRAK4)	EC50 ([1]; Homo sapiens)	EC50 [1]
CC(C)Nc1cc(-n2ncc3cc(C#N)cnc32)ncc1-c1cn([C@@H]2CCNC[C@@H]2O)nn1 [Example 186, 1-(5-(1-((3S,4R)-3-hydroxypiperidin-4-yl)-1H-1,2,3-triazol-4-yl)-4-(isopropylamino)pyridin-2-yl)-1H-pyrazolo[3,4-b]pyridine-5-carbonitrile]	16 nM	1780 nM	
CC(C)Nc1cc(-n2cnc3cc(C#N)cnc32)ncc1-c1cn(C[C@H](C)O)nn1 [Example 69, (S)-3-(5-(1-(2-hydroxypropyl)-1H-1,2,3-triazol-4-yl)-4-(isopropylamino)pyridin-2-yl)-3H-imidazo[4,5-b]pyridine-6-carbonitrile]	10 nM	1370 nM	
CC(C)Nc1cc(-n2ncc3cc(C#N)cnc32)ncc1-c1cn([C@H](C)[C@H](C)O)nn1 (single isomer, unassigned) [Example 89]	7 nM		930 nM
CC(C)Nc1cc(-n2ncc3cc(C#N)cnc32)ncc1-c1cn(CC(F)F)cn1 [Example 226, 1-(5-(1-(2,2-difluoroethyl)-1H-imidazol-4-yl)-4-(isopropylamino)pyridin-2-yl)-1H-pyrazolo[3,4-b]pyridine-5-carbonitrile]	16 nM	1480 nM	
CCOCC(O)Cn1cc(-c2cnc(-n3ncc4cc(C#N)cnc43)cc2NC(C)C)nn1 (centres unmarked) [Example 137, 1-(5-(1-(3-ethoxy-2-hydroxypropyl)-1H-1,2,3-triazol-4-yl)-4-(isopropylamino)pyridin-2-yl)-1H-pyrazolo[3,4-b]pyridine-5-carbonitrile]	8 nM	1690 nM	
CC(=O)N1CC(Cn2cnc(-c3cnc(-n4ncc5cc(C#N)cnc54)cc3NC(C)C)c2)C1 [Example 234, 1-(5-(1-((1-acetylazetidin-3-yl)methyl)-1H-imidazol-4-yl)-4-(isopropylamino)pyridin-2-yl)-1H-pyrazolo[3,4-b]pyridine-5-carbonitrile]	16 nM	440 nM	
CCC(O)Cc1cn(-c2cnc(-n3ncc4cc(C#N)cnc43)cc2NC(C)C)nn1 (centres unmarked) [Example 303, 1-(5-(4-(2-hydroxybutyl)-1H-1,2,3-triazol-1-yl)-4-(isopropylamino)pyridin-2-yl)-1H-pyrazolo[3,4-b]pyridine-5-carbonitrile]	16 nM	1180 nM	
CCc1cn(-c2cnc(-n3ncc4cc(C#N)cnc43)cc2NC(C)C)nn1 [Example 325, 1-(5-(4-ethyl-1H-1,2,3-triazol-1-yl)-4-(isopropylamino)pyridin-2-yl)-1H-pyrazolo[3,4-b]pyridine-5-carbonitrile]	16 nM	990 nM	
CC(C)(O)CCc1cn(-c2cnc(-n3ncc4cc(C#N)cnc43)cc2NCCC(F)(F)F)nn1 [Example 362, 1-(5-(4-(3-hydroxy-3-methylbutyl)-1H-1,2,3-triazol-1-yl)-4-((3,3,3-trifluoropropyl)amino)pyridin-2-yl)-1H-pyrazolo[3,4-b]pyridine-5-carbonitrile]	7 nM	440 nM	
CC(C)Nc1cc(-n2ncc3cc(C#N)cnc32)ncc1-c1cn([C@H]2CCN(C(=O)c3ccncc3)C[C@H]2O)nn1 [Example 185, 1-(5-(1-((3R,4S)-3-hydroxy-1-isonicotinoylpiperidin-4-yl)-1H-1,2,3-triazol-4-yl)-4-(isopropylamino)pyridin-2-yl)-1H-pyrazolo[3,4-b]pyridine-5-carbonitrile]	8 nM	1040 nM	
CC(C)Nc1cc(-n2ncc3cc(C#N)cnc32)ncc1-c1cn(C(C)C)cn1 [Example 225, 1-(5-(1-isopropyl-1H-imidazol-4-yl)-4-(isopropylamino)pyridin-2-yl)-1H-pyrazolo[3,4-b]pyridine-5-carbonitrile]	17 nM	5590 nM	
CC(C)Nc1cc(-n2ncc3cc(C#N)cnc32)ncc1-c1cn(CC(O)CO)nn1 (centres unmarked) [Example 131, 1-(5-(1-(2,3-dihydroxypropyl)-1H-1,2,3-triazol-4-yl)-4-(isopropylamino)pyridin-2-yl)-1H-pyrazolo[3,4-b]pyridine-5-carbonitrile]	12 nM	1080 nM	
CC(C)Cc1cn(-c2cnc(-n3ncc4cc(C#N)cnc43)cc2NC(C)C)nn1 [Example 305, 1-(5-(4-isobutyl-1H-1,2,3-triazol-1-yl)-4-(isopropylamino)pyridin-2-yl)-1H-pyrazolo[3,4-b]pyridine-5-carbonitrile]	10 nM	550 nM	
CCCn1cc(-c2cnc(-n3ncc4cc(C#N)cnc43)cc2Nc2cnn(CC(F)F)c2)cn1 [Example 256, 1-(4-((1-(2,2-difluoroethyl)-1H-pyrazol-4-yl)amino)-5-(1-propyl-1H-pyrazol-4-yl)pyridin-2-yl)-1H-pyrazolo[3,4-b]pyridine-5-carbonitrile]	14 nM	600 nM	
CC(C)Nc1cc(-n2ccc3cncnc32)ncc1-c1cn(CCO)nn1 [Example 1, 2-(4-(4-(isopropylamino)-6-(7H-pyrrolo[2,3-d]pyrimidin-7-yl)pyridin-3-yl)-1H-1,2,3-triazol-1-yl)ethanol]	7 nM	830 nM	

The next molecules have a lower IC50 (IRAK4) than those just listed; values first:

IC50 (IRAK4)	EC50 ([1]; Homo sapiens)	EC50 [1]	Structure (SMILES)
6 nM	260 nM		CC(C)Nc1cc(-n2ncc3cc(C#N)cnc32)ncc1-n1cc(CC[C@@](C)(O)CO)nn1 [Example 388, (R)-1-(5-(4-(3,4-dihydroxy-3-methylbutyl)-1H-1,2,3-triazol-1-yl)-4-(isopropylamino)pyridin-2-yl)-1H-pyrazolo[3,4-b]pyridine-5-carbonitrile]
5 nM	460 nM		CC(C)Nc1cc(-n2ncc3cc(C#N)cnc32)ncc1-c1cc(C2CNC2)no1 [Example 397, 1-(5-(3-(azetidin-3-yl)isoxazol-5-yl)-4-(isopropylamino)pyridin-2-yl)-1H-pyrazolo[3,4-b]pyridine-5-carbonitrile]
5 nM	1900 nM		Cc1nnc(N2CC(n3cc(-c4cnc(-n5ncc6cc(C#N)cnc65)cc4NC(C)C)nn3)C2)o1 [Example 148, 1-(4-(isopropylamino)-5-(1-(1-(5-methyl-1,3,4-oxadiazol-2-yl)azetidin-3-yl)-1H-1,2,3-triazol-4-yl)pyridin-2-yl)-1H-pyrazolo[3,4-b]pyridine-5-carbonitrile]
5 nM	950 nM		CC(C)Nc1cc(-n2ncc3cc(C#N)cnc32)ncc1-c1cn([C@@H]2CCN(S(C)(=O)=O)C[C@H]2OS(C)(=O)=O)nn1 (single isomer, unassigned) [Example 202]
5 nM	1060 nM		CC(C)Nc1cc(-n2ncc3cc(C#N)cnc32)ncc1-c1cn(C2CN(c3ncccn3)C2)nn1 [Example 147, 1-(4-(isopropylamino)-5-(1-(1-(pyrimidin-2-yl)azetidin-3-yl)-1H-1,2,3-triazol-4-yl)pyridin-2-yl)-1H-pyrazolo[3,4-b]pyridine-5-carbonitrile]
5 nM	1780 nM		CC(C)Nc1cc(-n2ncc3cc(C#N)cnc32)ncc1-n1cc(C[C@@H](O)c2ccccc2)nn1 [Example 315, (R)-1-(5-(4-(2-hydroxy-2-phenylethyl)-1H-1,2,3-triazol-1-yl)-4-(isopropylamino)pyridin-2-yl)-1H-pyrazolo[3,4-b]pyridine-5-carbonitrile]
4 nM	390 nM		CC(C)Nc1cc(-n2ncc3cc(C#N)cnc32)ncc1-c1cn(CCN(C)C)nn1 [Example 126, 1-(5-(1-(2-(dimethylamino)ethyl)-1H-1,2,3-triazol-4-yl)-4-(isopropylamino)pyridin-2-yl)-1H-pyrazolo[3,4-b]pyridine-5-carbonitrile]
4 nM	490 nM		CC(C)Nc1cc(-n2ncc3cc(C#N)cnc32)ncc1-c1cn(C2CN(C(=O)C(C)C)C2)nn1 [Example 144, 1-(5-(1-(1-isobutyrylazetidin-3-yl)-1H-1,2,3-triazol-4-yl)-4-(isopropylamino)pyridin-2-yl)-1H-pyrazolo[3,4-b]pyridine-5-carbonitrile]
3 nM	1090 nM		CC(C)Nc1cc(-n2ncc3cc(C#N)cnc32)ncc1-c1cn(CCc2ccccn2)nn1 [Example 118, 1-(4-(isopropylamino)-5-(1-(2-(pyridin-2-yl)ethyl)-1H-1,2,3-triazol-4-yl)pyridin-2-yl)-1H-pyrazolo[3,4-b]pyridine-5-carbonitrile]
3 nM	210 nM		CC(C)Nc1cc(-n2ncc3cc(C#N)cnc32)ncc1-c1cn(CCS(C)(=O)=O)nn1 [Example 116, 1-(4-(isopropylamino)-5-(1-(2-(methylsulfonyl)ethyl)-1H-1,2,3-triazol-4-yl)pyridin-2-yl)-1H-pyrazolo[3,4-b]pyridine-5-carbonitrile]
3 nM		590 nM	CC(C)Nc1cc(-n2ncc3cc(C#N)cnc32)ncc1-c1cn([C@@H]2CCC[C@H]2O)nn1 (single isomer, unassigned) [Example 80]
3 nM	1090 nM		CC(C)Nc1cc(-n2ncc3cc(C#N)cnc32)ncc1-c1cn(C2CN(C(=O)C(C)(C)C)C2)nn1 [Example 146, 1-(4-(isopropylamino)-5-(1-(1-pivaloylazetidin-3-yl)-1H-1,2,3-triazol-4-yl)pyridin-2-yl)-1H-pyrazolo[3,4-b]pyridine-5-carbonitrile]
2 nM		520 nM	CC(=O)N1CCC(n2cc(-c3cnc(-n4ncc5cc(C#N)cnc54)cc3NC(C)C)nn2)C1 (centres unmarked) [Example 158, 1-(5-(1-(1-acetylpyrrolidin-3-yl)-1H-1,2,3-triazol-4-yl)-4-(isopropylamino)pyridin-2-yl)-1H-pyrazolo[3,4-b]pyridine-5-carbonitrile]
